Test results published in patent US20240018123A1, “COMPOUND FOR INHIBITING OR DISINTEGRATING ANDROGEN RECEPTOR, AND PHARMACEUTICAL USE THEREOF” (KOREA RESEARCH INSTITUTE OF CHEMICAL TECHNOLOGY, priority 2020, published 2024).
Where two headings read alike, the source gives them in different places.

Columns and labels:
[1] = target: T1, Androgen receptor (AR) (Homo sapiens, UniProt P10275, T878A); assay: Assessment of AR proteolytic activity (Western blotting of LNCap cell lysates); format: cell-based; settings: 24 hours of treatment, Western blotting quantified with Image J; for remaining activity at 1 µM: read-out: Degradation (1 μM treated in LNCaP, % AR remaining)
T1 construct: 5.5×10^5 LNCap cells were injected into each well of a 6-well plate; endogenous in cells; host or cells: LNCaP
T1 sequence (P10275 1-920 T878A): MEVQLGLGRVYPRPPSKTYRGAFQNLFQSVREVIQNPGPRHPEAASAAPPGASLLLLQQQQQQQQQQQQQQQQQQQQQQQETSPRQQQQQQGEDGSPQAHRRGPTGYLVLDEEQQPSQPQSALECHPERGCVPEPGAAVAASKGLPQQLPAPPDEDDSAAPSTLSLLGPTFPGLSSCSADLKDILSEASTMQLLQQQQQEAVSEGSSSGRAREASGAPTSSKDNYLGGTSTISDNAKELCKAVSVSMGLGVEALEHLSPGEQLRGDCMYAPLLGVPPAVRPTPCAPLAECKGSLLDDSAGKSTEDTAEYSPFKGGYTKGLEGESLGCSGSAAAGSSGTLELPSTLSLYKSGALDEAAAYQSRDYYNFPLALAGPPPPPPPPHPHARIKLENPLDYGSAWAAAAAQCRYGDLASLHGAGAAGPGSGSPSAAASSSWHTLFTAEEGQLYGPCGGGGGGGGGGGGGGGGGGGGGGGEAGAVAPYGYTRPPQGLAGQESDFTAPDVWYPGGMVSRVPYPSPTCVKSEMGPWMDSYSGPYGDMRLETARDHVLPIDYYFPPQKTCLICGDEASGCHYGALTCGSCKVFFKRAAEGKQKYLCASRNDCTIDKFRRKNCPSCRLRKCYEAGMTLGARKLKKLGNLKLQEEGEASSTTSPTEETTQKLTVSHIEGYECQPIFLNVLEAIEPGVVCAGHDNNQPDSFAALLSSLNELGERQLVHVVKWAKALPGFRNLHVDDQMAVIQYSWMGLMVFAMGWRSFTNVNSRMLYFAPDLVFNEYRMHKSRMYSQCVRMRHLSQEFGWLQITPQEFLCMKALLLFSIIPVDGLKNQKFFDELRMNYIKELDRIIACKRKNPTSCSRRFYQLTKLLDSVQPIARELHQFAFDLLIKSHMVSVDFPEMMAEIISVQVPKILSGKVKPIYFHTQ
Outline: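 AR degradation read by Western blot densitometry on RIPA lysates (pH 7.5, protease inhibitor cocktail). Lysates came from LNCap cells, 5.5×10^5 per well, exposed to compound for 24 hours.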

[2] = tested on: VCaP cells; assay: Cytotoxicity assessment (Cell-titer-glo cell viability), VCaP
[3] = tested on: LNCaP cells; assay: Cytotoxicity assessment (Cell-titer-glo cell viability), LNCaP
[4] = read-out: VCaP (CC50), VCaP cells, 6 days of treatment, Cell-titer-glo, vs DMSO
[5] = read-out: LNCAP (CC50), LNCaP cells, 6 days of treatment, Cell-titer-glo, vs DMSO
[6] = Homo sapiens, VCaP, 144 h, read-out: VCaP (CC50, μM)
[7] = Homo sapiens, LNCaP, 144 h, read-out: LNCAP (CC50, μM)

Row | Compound | Degradation (1 μM treated in LNCaP, % AR remaining) [1] [%] | CC50 [2, 4] [µM] | CC50 [3, 5] [µM] | remaining activity at 1 µM [1] [%] | CC50 [2, 6] [µM] | CC50 [3, 7] [µM]
1 | CC1(C)[C@H](NC(=O)c2ccc(N3CCN(CCC4CCN(C(=O)C5CCN(c6ccc7nnn(C8CCC(=O)NC8=O)c(=O)c7c6)CC5)CC4)CC3)cc2)C(C)(C)[C@H]1Oc1ccc(C#N)c(Cl)c1 (stereo partly shown) [Example 26, N-((1r,3r)-3-(3-chloro-4-cyanophenoxy)-2,2,4,4-tetramethylcyclobutyl)-4-(4-(2-(1-(1-(3-(2,6-dioxopiperidin-3-yl)-4-oxo-3,4-dihydrobenzo[d][1,2,3]triazin-6-yl)piperidine-4-carbonyl)piperidin-4-yl)ethyl)piperazin-1-yl)benzamide] | 7 | 0.0516 | 0.361 | – | – | –
2 | CC1(C)[C@H](NC(=O)c2ccc(N3CCN(C4CC5(CCN(c6cccc7nnn(C8CCC(=O)NC8=O)c(=O)c67)CC5)C4)CC3)cc2)C(C)(C)[C@H]1Oc1ccc(C#N)c(Cl)c1 (stereo partly shown) [Example 22, N-((1r,3r)-3-(3-chloro-4-cyanophenoxy)-2,2,4,4-tetramethylcyclobutyl)-4-(4-(7-(3-(2,6-dioxopiperidin-3-yl)-4-oxo-3,4-dihydrobenzo[d][1,2,3]triazin-5-yl)-7-azaspiro[3.5]nonan-2-yl)piperazin-1-yl)benzamide] | 74 | 0.135 | 13.4 | – | – | –
3 | N-((1r,3r)-3-(3-chloro-4-cyanophenoxy)-2,2,4,4-tetramethylcyclobutyl)-4-(4-(2-((1-(1-(3-(2,6-dioxopiperidin-3-yl)-4-oxo-3,4-dihydrobenzo[d][1,2,3]triazin-6-yl)piperidine-4-carbonyl piperidin-4-yl)oxy)ethyl)piperazin-1-yl)benzamide [Example 30] | 4 | 0.08 | 0.847 | – | – | –
4 | CC1(C)[C@H](NC(=O)c2ccc(N3CCN(CC4CCN(C(=O)C5CCN(c6ccc7nnn(C8CCC(=O)NC8=O)c(=O)c7c6)CC5)CC4)CC3)cc2)C(C)(C)[C@H]1Oc1ccc(C#N)c(Cl)c1 (stereo partly shown) [Example 10, N-((1r,3r)-3-(3-chloro-4-cyanophenoxy)-2,2,4,4-tetramethylcyclobutyl)-4-(4-((1-(1-(3-(2,6-dioxopiperidin-3-yl)-4-oxo-3,4-dihydrobenzo[d][1,2,3]triazin-6-yl)piperidine-4-carbonyl)piperidin-4-yl)methyl)piperazin-1-yl)benzamide] | 12.5 | 0.257 | 0.19 | – | – | –
5 | CC1(C)[C@H](NC(=O)c2ccc(N3CCN(CCOC4CCN(c5ccc6nnn(C7CCC(=O)NC7=O)c(=O)c6c5)CC4)CC3)cc2)C(C)(C)[C@H]1Oc1ccc(C#N)c(Cl)c1 (stereo partly shown) [Example 34, N-((1r,3r)-3-(3-chloro-4-cyanophenoxy)-2,2,4,4-tetramethylcyclobutyl)-4-(4-(2-((1-(3-(2,6-dioxopiperidin-3-yl)-4-oxo-3,4-dihydrobenzo[d][1,2,3]triazin-6-yl)piperidin-4-yl)oxy)ethyl)piperazin-1-yl)benzamide] | – | – | – | 11 | 0.0702 | 0.523
6 | CC1(C)[C@H](NC(=O)c2ccc(N3CCN(C4CC5(CCN(C(=O)C6CCN(c7ccc8nnn(C9CCC(=O)NC9=O)c(=O)c8c7)CC6)CC5)C4)CC3)cc2)C(C)(C)[C@H]1Oc1ccc(C#N)c(Cl)c1 (stereo partly shown) [Example 20, N-((1r,3r)-3-(3-chloro-4-cyanophenoxy)-2,2,4,4-tetramethylcyclobutyl)-4-(4-(7-(1-(3-(2,6-dioxopiperidin-3-yl)-4-oxo-3,4-dihydrobenzo[d][1,2,3]triazin-6-yl)piperidine-4-carbonyl)-7-azaspiro[3.5]nonan-2-yl)piperazin-1-yl)benzamide] | 26 | 0.0542 | 0.178 | – | – | –
7 | CC1(C)[C@H](NC(=O)c2ccc(N3CCN(CCOC4CCN(C(=O)CNc5ccc6nnn(C7CCC(=O)NC7=O)c(=O)c6c5)CC4)CC3)cc2)C(C)(C)[C@H]1Oc1ccc(C#N)c(Cl)c1 (stereo partly shown) [Example 31, N-((1r,3r)-3-(3-chloro-4-cyanophenoxy)-2,2,4,4-tetramethylcyclobutyl)-4-(4-(2-((1-((3-(2,6-dioxopiperidin-3-yl)-4-oxo-3,4-dihydrobenzo[d][1,2,3]triazin-6-yl)glycyl)piperidin-4-yl)oxy)ethyl)piperazin-1-yl)benzamide] | – | – | – | 5 | 0.0571 | 0.852
8 | CC1(C)[C@H](NC(=O)c2ccc(N3CCN(C4CC5(CCN(c6ccc7nnn(C8CCC(=O)NC8=O)c(=O)c7c6)CC5)C4)CC3)cc2)C(C)(C)[C@H]1Oc1ccc(C#N)c(Cl)c1 (stereo partly shown) [Example 23, N-((1r,3r)-3-(3-chloro-4-cyanophenoxy)-2,2,4,4-tetramethylcyclobutyl)-4-(4-(7-(3-(2,6-dioxopiperidin-3-yl)-4-oxo-3,4-dihydrobenzo[d][1,2,3]triazin-6-yl)-7-azaspiro[3.5]nonan-2-yl)piperazin-1-yl)benzamide] | 5 | 0.191 | 0.302 | – | – | –
9 | CC1(C)[C@H](NC(=O)c2ccc(N3CCN(CC4CCN(c5ccc6nnn(C7CCC(=O)NC7=O)c(=O)c6c5)CC4)CC3)cc2)C(C)(C)[C@H]1Oc1ccc(C#N)c(Cl)c1 (stereo partly shown) [Example 8, N-((1r,3r)-3-(3-chloro-4-cyanophenoxy)-2,2,4,4-tetramethylcyclobutyl)-4-(4-((1-(3-(2,6-dioxopiperidin-3-yl)-4-oxo-3,4-dihydrobenzo[d][1,2,3]triazin-6-yl)piperidin-4-yl)methyl)piperazin-1-yl)benzamide] | – | – | – | 8.1 | 0.685 | 0.163
10 | CC1(C)[C@H](NC(=O)c2ccc(N3CCN(CCOC4CCN(C(=O)COc5ccc6nnn(C7CCC(=O)NC7=O)c(=O)c6c5)CC4)CC3)cc2)C(C)(C)[C@H]1Oc1ccc(C#N)c(Cl)c1 (stereo partly shown) [Example 32, N-((1r,3r)-3-(3-chloro-4-cyanophenoxy)-2,2,4,4-tetramethylcyclobutyl)-4-(4-(2-((1-(2-((3-(2,6-dioxopiperidin-3-yl)-4-oxo-3,4-dihydrobenzo[d][1,2,3]triazin-6-yl)oxy)acetyl)piperidin-4-yl)oxy)ethyl)piperazin-1-yl)benzamide] | – | – | – | 2 | 0.141 | 1.3
11 | N-((1r,3r)-3-(3-chloro-4-cyanophenoxy)-2,2,4,4-tetramethylcyclobutyl)-4-(4-(2-((1-(1-(3-(2,6-dioxopiperidin-3-yl)-4-oxo-3,4-dihydrobenzo[d][1,2,3]triazin-6-yl)azetidine-3-carbonyl)piperidin-4-yl)oxy)ethyl)piperazin-1-yl)benzamide [Example 33] | 14 | 0.057 | 0.762 | – | – | –
12 | CC1(C)C(NC(=O)c2ccc(-n3cc(C4CCN(C(=O)C5CCN(c6ccc7nnn(C8CCC(=O)NC8=O)c(=O)c7c6)CC5)CC4)nn3)cc2)C(C)(C)C1Oc1ccc(C#N)c(Cl)c1 (stereo not shown) [Example 102, N-((1r,3r)-3-(3-chloro-4-cyanophenoxy)-2,2,4,4-tetramethylcyclobutyl)-4-(4-(1-(1-(3-(2,6-dioxopiperidin-3-yl)-4-oxo-3,4-dihydrobenzo[d][1,2,3]triazin-6-yl)piperidine-4-carbonyl)piperidin-4-yl)-1H-1,2,3-triazol-1-yl)benzamide] | – | 0.00588 | 0.0158 | – | – | –
13 | CC1(C)C(NC(=O)c2ccc(-n3cc(CC4CCN(C(=O)CNc5ccc6nnn(C7CCC(=O)NC7=O)c(=O)c6c5)CC4)nn3)cc2)C(C)(C)C1Oc1ccc(C#N)c(Cl)c1 (stereo not shown) [Example 106, N-((1r,3r)-3-(3-chloro-4-cyanophenoxy)-2,2,4,4-tetramethylcyclobutyl)-4-(4-((1-((3-(2,6-dioxopiperidin-3-yl)-4-oxo-3,4-dihydrobenzo[d][1,2,3]triazin-6-yl)glycyl)piperidin-4-yl)methyl)-1H-1,2,3-triazol-1-yl)benzamide] | – | 0.0113 | 0.0691 | – | – | –
